Test results from US10442835B2, “Water-soluble rapamycin derivatives” (Zhejiang Hisun Pharmaceutical Co., Ltd., priority 2016, dated 2019).
Each block holds one compound with its values, some of them ahead of it.

Columns and labels:
[1] = Drug release in serum by prodrugs; type: in vitro ADME, rat; details: 37° C.; HPLC at 10 min to 4 h
Protocol: The effects of the compounds according to the present invention as prodrugs of rapamycin can be confirmed by standard operational procedures of pharmacological experiments.
10 mL ZnCl2 solution with a concentration of 0.10 mol/L was prepared for use.
1.5 mL blood from ophthalmic artery of rats was injected into a 1.5 mL centrifuge tube and was centrifuged at 12000 rad/min for 10 min. 300 μl supernate (serum) was pipetted into a 1.5 mL centrifuge tube. 7 samples of the serum were prepared for use with the same method.
As a blank control, 100 μl water was added to centrifuge tube No. 7. Then the tubes were incubated at 37° C. in an incubator.
300 μl acetonitrile and 300 μl ZnCl2 solution of 0.1 mol/L were added to each of centrifuge tubes No. 1-6 at 10 min, 0.5 h, 1 h, 2 h, 3 h, and 4 h, respectively. The tubes were vortexed homogeneously for 5 min, so as to end the action of the enzyme in the serum on the compounds. 300 μl acetonitrile and 300 μl ZnCl2 solution of 0.1 M were added to the centrifuge tube No. 7 at 4 h, which was then vortexed homogeneously for 5 min.
Each of the centrifuge tubes No. 1-7 was centrifuged at 12000 rad/min for 15 min. The protein in the serum was removed via centrifuging.

[2] = Body weight of OS-RC-2 tumor nude mice
Protocol: The experiment was terminated and tumors were stripped and weighted. The tumor inhibition rate was calculated.
The body weight can indirectly reflect the toxicity of the drugs.

[3] = Test for solubility in water; type: physicochemical; details: water, thermodynamic from solid
Protocol: The experiments herein can measure the dissolution profile in water of the compounds according to the present invention.
To a 25 ml volumetric flask, 25 mg everolimus was added, and diluted with acetonitrile to volume. The mixture was shaken till all the solid dissolved, obtaining 1 mg/mL everolimus solution in acetonitrile.
1 mg/mL everolimus solution in acetonitrile was added to a 10 ml volumetric flask, and was diluted with acetonitrile by 2 times, 10 times, 100 times and 1000 times, so as to obtain everolimus solutions in acetonitrile with a concentration of 0.5 mg/mL, 0.1 mg/mL, 0.01 mg/mL and 0.001 mg/mL, respectively.
Each of the three mixtures was shaken till the solid in the volumetric flask stopped to dissolve. Before analyzed by HPLC, 1 mL of each solution was filtrated via a 0.22 μm filter. The solubility of the compounds was calculated from the standard curve using the peak area of the main peak obtained.
Based on the same study method, comparisons of the solubility between sirolimus/temsirolimus and the compounds modified by glutathione are carried out, respectively.

[4] = In vivo pharmacokinetic study in rats; parameters: species or system SD rats
Protocol: To further study the in vivo pharmacokinetic characteristics of compound I-1 in rats, compound I-1 was administrated to SD rats via intravenous injection. The in vivo pharmacokinetic characteristics and bioavailability of everolimus released in rats were measured, and compared with the pharmacokinetic characteristics of everolimus via oral administration.
Then the animals were observed when blood was sampled every time until the last sample was collected.

[5] = Day 5, G4 compound I-1 8.12 mg/kg ig 3×/qw
[6] = Day 5, G5 compound I-1 2.0 mg/kg iv 3×/qw
[7] = Day 5, G6 compound I-1 8.12 mg/kg iv 3×/qw
[8] = Day 5, G7 compound I-1 32.7 mg/kg iv 1×/qw
[9] = Day 8, G4 compound I-1 8.12 mg/kg ig 3×/qw
[10] = Day 8, G5 compound I-1 2.0 mg/kg iv 3×/qw
[11] = Day 8, G6 compound I-1 8.12 mg/kg iv 3×/qw
[12] = Day 8, G7 compound I-1 32.7 mg/kg iv 1×/qw
[13] = Day 12, G4 compound I-1 8.12 mg/kg ig 3×/qw
[14] = Day 12, G5 compound I-1 2.0 mg/kg iv 3×/qw
[15] = Day 12, G6 compound I-1 8.12 mg/kg iv 3×/qw
[16] = Day 12, G7 compound I-1 32.7 mg/kg iv 1×/qw
[17] = Day 15, G4 compound I-1 8.12 mg/kg ig 3×/qw
[18] = Day 15, G5 compound I-1 2.0 mg/kg iv 3×/qw
[19] = Day 15, G6 compound I-1 8.12 mg/kg iv 3×/qw
[20] = Day 15, G7 compound I-1 32.7 mg/kg iv 1×/qw
[21] = Day 19, G4 compound I-1 8.12 mg/kg ig 3×/qw
[22] = Day 19, G5 compound I-1 2.0 mg/kg iv 3×/qw
[23] = Day 19, G6 compound I-1 8.12 mg/kg iv 3×/qw
[24] = Day 19, G7 compound I-1 32.7 mg/kg iv 1×/qw
[25] = Day 22, G4 compound I-1 8.12 mg/kg ig 3×/qw
[26] = Day 22, G5 compound I-1 2.0 mg/kg iv 3×/qw
[27] = Day 22, G6 compound I-1 8.12 mg/kg iv 3×/qw
[28] = Day 22, G7 compound I-1 32.7 mg/kg iv 1×/qw
[29] = Day 26, G4 compound I-1 8.12 mg/kg ig 3×/qw
[30] = Day 26, G5 compound I-1 2.0 mg/kg iv 3×/qw
[31] = Day 26, G6 compound I-1 8.12 mg/kg iv 3×/qw
[32] = Day 26, G7 compound I-1 32.7 mg/kg iv 1×/qw
[33] = Day 29, G4 compound I-1 8.12 mg/kg ig 3×/qw
[34] = Day 29, G5 compound I-1 2.0 mg/kg iv 3×/qw
[35] = Day 29, G6 compound I-1 8.12 mg/kg iv 3×/qw
[36] = Day 29, G7 compound I-1 32.7 mg/kg iv 1×/qw
[37] = Day 32, G4 compound I-1 8.12 mg/kg ig 3×/qw
[38] = Day 32, G5 compound I-1 2.0 mg/kg iv 3×/qw
[39] = Day 32, G6 compound I-1 8.12 mg/kg iv 3×/qw
[40] = Day 32, G7 compound I-1 32.7 mg/kg iv 1×/qw
[41] = Sprague-Dawley (SD), rat, everolimus in plasma, everolimus PO 10 mg/kg, male SD rats

Structure (SMILES): CO[C@H]1C[C@@H]2CC[C@@H](C)[C@@](O)(O2)C(=O)C(=O)N2CCCC[C@H]2C(=O)OC([C@H](C)C[C@@H]2CC[C@@H](OCCOC(=O)CSC[C@H](NC(=O)CC[C@H](N)C(=O)O)C(=O)NCC(=O)O)[C@H](OC)C2)CC(=O)[C@H](C)/C=C(\C)[C@@H](O)[C@@H](OC)C(=O)[C@H](C)C[C@@H](C)\C=C/C=C/C=C/1C (some centres unmarked) [Compound I-1]
release of everolimus in rat's serum [1]: slowly release everolimus
Body Weight, mean value ([2]; Day 1, G4 compound I-1 8.12 mg/kg ig 3×/qw): 21.04 g
Body Weight, mean value ([2]; Day 1, G5 compound I-1 2.0 mg/kg iv 3×/qw): 20.67 g
Body Weight, mean value ([2]; Day 1, G6 compound I-1 8.12 mg/kg iv 3×/qw): 21.39 g
Body Weight, mean value ([2]; Day 1, G7 compound I-1 32.7 mg/kg iv 1×/qw): 21.28 g
Body Weight, mean value [2, 5]: 20.27 g
Decrease rate of body weight [2, 5]: 3.7%
Body Weight, mean value [2, 6]: 19.27 g
Decrease rate of body weight [2, 6]: 6.8%
Body Weight, mean value [2, 7]: 20.46 g
Decrease rate of body weight [2, 7]: 4.4%
Body Weight, mean value [2, 8]: 19.97 g
Decrease rate of body weight [2, 8]: 6.2%
Body Weight, mean value [2, 9]: 20.04 g
Decrease rate of body weight [2, 9]: 4.8%
Body Weight, mean value [2, 10]: 18.76 g
Decrease rate of body weight [2, 10]: 9.2%
Body Weight, mean value [2, 11]: 21.16 g
Decrease rate of body weight [2, 11]: 1.1%
Body Weight, mean value [2, 12]: 20.14 g
Decrease rate of body weight [2, 12]: 5.3%
Body Weight, mean value [2, 13]: 19.62 g
Decrease rate of body weight [2, 13]: 6.7%
Body Weight, mean value [2, 14]: 18.71 g
Decrease rate of body weight [2, 14]: 9.5%
Body Weight, mean value [2, 15]: 21.25 g
Decrease rate of body weight [2, 15]: 0.7%
Body Weight, mean value [2, 16]: 19.93 g
Decrease rate of body weight [2, 16]: 6.3%
Body Weight, mean value [2, 17]: 19.29 g
Decrease rate of body weight [2, 17]: 8.3%
Body Weight, mean value [2, 18]: 18.18 g
Decrease rate of body weight [2, 18]: 12.0%
Body Weight, mean value [2, 19]: 20.71 g
Decrease rate of body weight [2, 19]: 3.2%
Body Weight, mean value [2, 20]: 19.38 g
Decrease rate of body weight [2, 20]: 8.9%
Body Weight, mean value [2, 21]: 19.19 g
Decrease rate of body weight [2, 21]: 8.8%
Body Weight, mean value [2, 22]: 18.30 g
Decrease rate of body weight [2, 22]: 11.5%
Body Weight, mean value [2, 23]: 19.67 g
Decrease rate of body weight [2, 23]: 8.0%
Body Weight, mean value [2, 24]: 19.12 g
Decrease rate of body weight [2, 24]: 10.2%
Body Weight, mean value [2, 25]: 19.19 g
Decrease rate of body weight [2, 25]: 8.8%
Body Weight, mean value [2, 26]: 18.30 g
Decrease rate of body weight [2, 26]: 11.5%
Body Weight, mean value [2, 27]: 19.67 g
Decrease rate of body weight [2, 27]: 8.0%
Body Weight, mean value [2, 28]: 19.12 g
Decrease rate of body weight [2, 28]: 10.2%
Body Weight, mean value [2, 29]: 19.65 g
Decrease rate of body weight [2, 29]: 6.6%
Body Weight, mean value [2, 30]: 17.95 g
Decrease rate of body weight [2, 30]: 13.1%
Body Weight, mean value [2, 31]: 19.31 g
Decrease rate of body weight [2, 31]: 9.7%
Body Weight, mean value [2, 32]: 19.12 g
Decrease rate of body weight [2, 32]: 10.2%
Body Weight, mean value [2, 33]: 20.02 g
Decrease rate of body weight [2, 33]: 4.8%
Body Weight, mean value [2, 34]: 18.29 g
Decrease rate of body weight [2, 34]: 11.5%
Body Weight, mean value [2, 35]: 19.04 g
Decrease rate of body weight [2, 35]: 10.5%
Body Weight, mean value [2, 36]: 19.04 g
Decrease rate of body weight [2, 36]: 10.5%
Body Weight, mean value [2, 37]: 19.87 g
Decrease rate of body weight [2, 37]: 5.6%
Body Weight, mean value [2, 38]: 18.12 g
Decrease rate of body weight [2, 38]: 12.3%
Body Weight, mean value [2, 39]: 18.80 g
Decrease rate of body weight [2, 39]: 11.7%
Body Weight, mean value [2, 40]: 18.94 g
Decrease rate of body weight [2, 40]: 10.7%
stability after dissolving in normal saline: the resulted solution is stable

solubility [3]: < 1 µg/mL
concentration at 3 h ([4]; Sprague-Dawley (SD), rat, plasma, 3 h, oral administration of everolimus 10.000 mg/kg, male SD rats): 64.3 ng/mL
concentration at 4 h ([4]; Sprague-Dawley (SD), rat, plasma, 4 h, oral administration of everolimus 10.000 mg/kg, male SD rats): 61.4 ng/mL
concentration at 6 h ([4]; Sprague-Dawley (SD), rat, plasma, 6 h, oral administration of everolimus 10.000 mg/kg, male SD rats): 32.3 ng/mL
AUC(0-inf) [4, 41]: 454 ng·h/mL
AUC(0-t) [4, 41]: 454 ng·h/mL
Cmax [4, 41]: 126 ng/mL
Tmax [4, 41]: 1.91 h
half-life [4, 41]: 2.2 h
MRT ([4]; Sprague-Dawley (SD), rat, everolimus in plasma, everolimus PO 10 mg/kg, male SD rats, read-out: MRT (mean residence time)): 3.17 h
AUC Extr ([4]; everolimus in plasma, everolimus PO 10 mg/kg, male SD rats): 6.90%
concentration at 0 h ([4]; rat, plasma, 0 h, oral administration of everolimus 10.000 mg/kg, male SD rats): 0 ng/mL
concentration at 0.25 h ([4]; rat, plasma, 0.25 h, oral administration of everolimus 10.000 mg/kg, male SD rats): 17.3 ng/mL
concentration at 0.5 h ([4]; rat, plasma, 0.5 h, oral administration of everolimus 10.000 mg/kg, male SD rats): 99.9 ng/mL
concentration at 1 h ([4]; rat, plasma, 1 h, oral administration of everolimus 10.000 mg/kg, male SD rats): 99.1 ng/mL
concentration at 1.5 h ([4]; rat, plasma, 1.5 h, oral administration of everolimus 10.000 mg/kg, male SD rats): 90.4 ng/mL
concentration at 2 h ([4]; rat, plasma, 2 h, oral administration of everolimus 10.000 mg/kg, male SD rats): 69.7 ng/mL
concentration at 8 h ([4]; rat, plasma, 8 h, oral administration of everolimus 10.000 mg/kg, male SD rats): 16.3 ng/mL
concentration at 24 h ([4]; rat, plasma, 24 h, oral administration of everolimus 10.000 mg/kg, male SD rats): 2.2 ng/mL
area under the curve (AUC) of plasma concentration of everolimus vs. time ([4]; rats orally administrated with everolimus 10 mg/Kg): about 450
Structure (SMILES): CO[C@H]1C[C@@H]2CC[C@@H](C)[C@@](O)(O2)C(=O)C(=O)N2CCCC[C@H]2C(=O)O[C@H]([C@H](C)C[C@@H]2CC[C@@H](OCCO)[C@H](OC)C2)CC(=O)[C@H](C)/C=C(\C)[C@@H](O)[C@@H](OC)C(=O)[C@H](C)C[C@H](C)/C=C/C=C/C=C/1C [Everolimus, reference compound]
